Source: US20240417405A1, “Substituted Spiro Derivatives” (Janssen Pharmaceutica NV, priority 2021, published 2024)

How the values were obtained:
[1] = target: T1, menin/MLL (terbium chelate-labeled menin, FITC-MBM1 peptide) (Homo sapiens, UniProt O00255, T541A); assay: Menin/MLL homogenous time-resolved fluorescence (HTRF) assay; type: binding; details: 30 min incubation
T1 construct: Menin (a.a 1-610-6xhis tag)
T1 sequence (O00255 with tags, fused parts or gaps T541A): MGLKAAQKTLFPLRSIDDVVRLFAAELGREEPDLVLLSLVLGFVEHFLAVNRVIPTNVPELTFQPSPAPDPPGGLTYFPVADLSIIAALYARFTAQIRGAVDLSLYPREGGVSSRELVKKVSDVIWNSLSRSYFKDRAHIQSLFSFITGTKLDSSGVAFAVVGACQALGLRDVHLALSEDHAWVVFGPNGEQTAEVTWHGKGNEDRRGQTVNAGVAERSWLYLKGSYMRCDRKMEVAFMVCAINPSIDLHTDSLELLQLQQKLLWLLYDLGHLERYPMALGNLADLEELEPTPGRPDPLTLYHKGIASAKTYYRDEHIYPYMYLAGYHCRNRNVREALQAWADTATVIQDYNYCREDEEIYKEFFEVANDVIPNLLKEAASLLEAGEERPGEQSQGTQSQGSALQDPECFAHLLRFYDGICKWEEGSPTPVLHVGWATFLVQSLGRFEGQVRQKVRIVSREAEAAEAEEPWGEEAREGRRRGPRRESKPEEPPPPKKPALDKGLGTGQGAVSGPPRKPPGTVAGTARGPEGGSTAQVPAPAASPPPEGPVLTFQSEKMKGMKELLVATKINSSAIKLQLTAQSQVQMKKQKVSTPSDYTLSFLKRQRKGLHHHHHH
In short: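 Tb-cryptate menin (1-610, 6xHis) 200 pM + cmpd, 30 min RT; + FITC-MBM1 75 nM, 15 min RT. 40 mM Tris pH 7.5, 50 mM NaCl, 1 mM DTT, 0.05% Pluronic F-127, 0.5% DMSO. HTRF 520/490; 11-pt 4-fold from 10 μM; IC50 fit.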

[2] = system: MOLM14 cells; assay: Proliferation assay, spheroid-like growth, MOLM14 (MLL-AF9 rearranged); type: cell-based, human; details: Homo sapiens, MOLM-14, 192 h, 8 days, confluence as measure of spheroid size, read-out: spheroid assay_OneTime MOLM14 IC50
In short: (§1)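 200 MOLM14 or 300 KO-52 cells/well, ultra-low attachment, compound dilutions, DMSO 0.3%; 8 d, 37 °C, 5% CO2. Read: live-cell imaging confluence (spheroid size) day 8. Absolute IC50, min 0%/max 100% fixed, variable slope.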

[3] = system: KO-52 cells; assay: Proliferation assay, spheroid-like growth, KO-52 (MLL wildtype control cell line); type: cell-based, human; details: Homo sapiens, 192 h, KO-52 control cells, 8 days, confluence as measure of spheroid size; read-out: spheroid assay_OneTime KO-52 IC50
In short: as §1

| Compound | IC50 [1] | IC50 [2] | IC50 [3] |
| --- | --- | --- | --- |
| CC(C)[C@@H]([C@H]1C[C@@H](N2CC[C@H](S(C)(=O)=O)C2)C1)N1CC2(CCN(c3ncnnc3Oc3ccc(F)cc3-c3ncccc3C3CC3)C2)C1 (single isomer, unassigned) [Compound 285] | 23.3 nM | > 940 nM | > 15000 nM |
| CC(C)[C@H](C1CN(CC2COC2)C1)N1CC2(CCN(c3ncnnc3Oc3ccc(F)cc3-c3cncnc3C3CC3)C2)C1 (single isomer, unassigned) [Compound 354] | 7.4 nM | 2430 nM | > 15000 nM |
| CC(=O)Nc1nccc(N[C@H]2C[C@@H]([C@@H](C(C)C)N3CC4(CCN(c5ncnnc5Oc5ccc(F)cc5-c5cncnc5C5CC5)C4)C3)C2)n1 (single isomer, unassigned) [Compound 405] | 0.22 nM | 3 nM | 7570 nM |
| CC(C)[C@@H]([C@H]1C[C@H](NC2CC2)C1)N1CC2(CCN(c3ncnnc3Oc3ccc(F)cc3-c3nnccc3C3CC3)C2)C1 (single isomer, unassigned) [Compound 273] | 0.3 nM | 110 nM | > 15000 nM |
| O=c1cc(C2CC2)c(-c2cc(F)ccc2Oc2nncnc2N2CCC3(C2)CN([C@@H](C2CCN(CC4COC4)CC2)C24CC(C2)C4)C3)n[nH]1 (single isomer, unassigned) [Compound 339] | 0.4 nM | > 940 nM | > 15000 nM |
| CC(C)[C@@H](C1CCN(CC2COC2)CC1)N1CC2(CCN(c3ncnnc3Oc3ccc(F)cc3-c3cncnc3C3CC3)C2)C1 (single isomer, unassigned) [Compound 29] | 1.8 nM | 220 nM | > 15000 nM |
| CC(C)[C@H]([C@H]1C[C@H](N2CC3(CCO3)C2)C1)N1CC2(CCN(c3ncnnc3Oc3ccc(F)cc3-c3cnncc3C3CC3)C2)C1 (single isomer, unassigned) [Compound 84a] | 21.5 nM | 850 nM | > 15000 nM |
| CC(C)[C@H]([C@H]1C[C@@H](N2CC3(CCO3)C2)C1)N1CC2(CCN(c3ncnnc3Oc3ccc(F)cc3-c3cnncc3C3CC3)C2)C1 (single isomer, unassigned) [Compound 84] | 5.5 nM | 220 nM | > 15000 nM |
| CC(=O)N[C@H]1C[C@@H](C(C(C)C)N2CC3(CCN(c4ncnnc4Oc4ccc(F)cc4-c4cnncc4C4CC4)C3)C2)C1 (stereo partly drawn) [Compound 187] | 0.8 nM | 65 nM | > 15000 nM |
| CC(C)[C@H]([C@H]1C[C@]2(CCC(=O)N2)C1)N1CC2(CCN(c3ncnnc3Oc3ccc(F)cc3-c3cncnc3C3CC3)C2)C1 (single isomer, unassigned) [Compound 313] | 43.4 nM | > 940 nM | > 15000 nM |
| CC(C)C(C1CC(C)(O)C1)N1CC2(CCN(c3ncnnc3Oc3ccc(F)cc3-c3cncnc3C3CC3)C2)C1 (single isomer, unassigned) [Compound 159] | 0.3 nM | 110 nM | 1100 nM |
| CC(C)[C@H]([C@H]1C[C@@H](N2CCOCC2)C1)N1CC2(CCN(c3ncnnc3Oc3ccc(F)cc3-c3cncnc3C3CC3)C2)C1 (single isomer, unassigned) [Compound 208] | 0.3 nM | 29 nM | 9130 nM |
| COC1(C)CN([C@H]2C[C@H]([C@H](C(C)C)N3CC4(CCN(c5ncnnc5Oc5ccc(F)cc5-c5nnccc5C5CC5)C4)C3)C2)C1 (single isomer, unassigned) [Compound 264] | 0.8 nM | 170 nM | 14400 nM |
| CC(C)[C@@H]([C@H]1C[C@@H](NC2CCOCC2)C1)N1CC2(CCN(c3ncnnc3Oc3ccc(F)cc3-c3cncnc3C3CC3)C2)C1 (single isomer, unassigned) [Compound 165] | 0.8 nM | 200 nM | 9910 nM |

These reach a lower IC50 [1]. Values come first.

| IC50 [1] | IC50 [2] | Compound | IC50 [3] |
| --- | --- | --- | --- |
| 0.2 nM | 50 nM | CC(C)C([C@H]1C[C@@H](Nc2cncnc2)C1)N1CC2(CCN(c3ncnnc3Oc3ccc(F)cc3-c3cncnc3C3CC3)C2)C1 (stereo partly drawn) [Compound 193] | > 15000 nM |
| 0.2 nM | 5 nM | CO[C@H]1CCCN([C@H]2C[C@@H]([C@H](C(C)C)N3CC4(CCN(c5ncnnc5Oc5ccc(F)cc5-c5nnccc5C5CC5)C4)C3)C2)C1 (single isomer, unassigned) [Compound 256] | > 15000 nM |
| 0.2 nM | 4 nM | COC1CN([C@H]2C[C@@H]([C@@H](C(C)C)N3CC4(CCN(c5ncnnc5Oc5ccc(F)cc5-c5cncnc5C5CC5)C4)C3)C2)CC1OC (single isomer, unassigned) [Compound 236] | 2250 nM |
| 0.2 nM | 70 nM | CC(C)[C@H]([C@H]1C[C@@H](NC(=O)C2CC2)C1)N1CC2(CCN(c3ncnnc3Oc3ccc(F)cc3-n3ncnc3C3CC3)C2)C1 (single isomer, unassigned) [Compound 308] | 4570 nM |
| 0.2 nM | 17 nM | CC(C)[C@H]([C@H]1C[C@@H](NC(=O)C2(F)CC2)C1)N1CC2(CCN(c3ncnnc3Oc3ccc(F)cc3-c3nnccc3C3CC3)C2)C1 (single isomer, unassigned) [Compound 305] | 5780 nM |
| 0.2 nM | 120 nM | CC(C)[C@@H]([C@H]1C[C@H](N2CC[C@@H](C(=O)N(C)C)C2)C1)N1CC2(CCN(c3ncnnc3Oc3ccc(F)cc3-c3cnncc3C3CC3)C2)C1 (single isomer, unassigned) [Compound 111] | > 15000 nM |
| 0.16 nM | 19 nM | CC(C)[C@@H]([C@H]1C[C@@H](N(C)C)C1)N1CC2(CCN(c3ncnnc3Oc3ccc(F)cc3-c3nnccc3C3CC3)C2)C1 (single isomer, unassigned) [Compound 261a] | > 15000 nM |
| 0.1 nM | 12 nM | CC(C)[C@@H]([C@H]1C[C@@H](N2CC3(CCO3)C2)C1)N1CC2(CCN(c3ncnnc3Oc3ccc(F)cc3-c3cnncc3C3CC3)C2)C1 (single isomer, unassigned) [Compound 102] | 8470 nM |
| 0.1 nM | 24 nM | CC(=O)N1CC[C@@]12CCN([C@H]1C[C@@H]([C@@H](C(C)C)N3CC4(CCN(c5ncnnc5Oc5ccc(F)cc5-c5cncnc5C5CC5)C4)C3)C1)C2 (single isomer, unassigned) [Compound 59] | 5010 nM |
| 0.1 nM | 2 nM | CC(C)[C@H]([C@H]1C[C@@H](N2C[C@H]3COC[C@H]3C2)C1)N1CC2(CCN(c3ncnnc3Oc3ccc(F)cc3-c3cncnc3C3CC3)C2)C1 (single isomer, unassigned) [Compound 14] | 2110 nM |
| 0.1 nM | 4 nM | CC(C)[C@H]([C@H]1C[C@@H](N2CC3(COC3)C2)C1)N1CC2(CCN(c3ncnnc3Oc3ccc(F)cc3-c3ncccc3C3CC3)C2)C1 (single isomer, unassigned) [Compound 151] | 2030 nM |
| 0.1 nM | 4 nM | CC(C)[C@H]([C@H]1C[C@@H](N2CC[C@@H](C(C)(C)O)C2)C1)N1CC2(CCN(c3ncnnc3Oc3ccc(F)cc3-c3cncnc3C3CC3)C2)C1 (single isomer, unassigned) [Compound 70] | 5150 nM |
| 0.1 nM | 4 nM | CC(C)[C@H]([C@H]1C[C@@H](N(C)C)C1)N1CC2(CCN(c3ncnnc3Oc3ccc(F)cc3-c3ncccc3C3CC3)C2)C1 (single isomer, unassigned) [Compound 147] | 390 nM |
| 0.1 nM | 7 nM | CC(C)[C@H]([C@H]1C[C@@H](NC2CC2)C1)N1CC2(CCN(c3ncnnc3Oc3ccc(F)cc3-c3cncnc3C3CC3)C2)C1 (single isomer, unassigned) [Compound 39] | 1480 nM |
| 0.1 nM | 41 nM | CC(C)C([C@H]1C[C@H](N2C[C@H]3COC[C@H]3C2)C1)N1CC2(CCN(c3ncnnc3Oc3ccc(F)cc3-c3cnccc3C3CC3)C2)C1 (stereo partly drawn) [Compound 139] | 1310 nM |
| 0.1 nM | 2 nM | CC(C)[C@@H]([C@H]1C[C@@H](N2CC(OC3CC3)C2)C1)N1CC2(CCN(c3ncnnc3Oc3ccc(F)cc3-c3nnccc3C3CC3)C2)C1 (single isomer, unassigned) [Compound 274] | 3560 nM |
